Measurements: BindingDB's records for PubMed 35671625 (Northwest University, 2022)

Molecular target: Beta-2 adrenergic receptor (Homo sapiens, UniProt P07550)
Experiment: Displacement of [3H]-CGP12,177 from immobilized Halo tag-fused beta2 adrenoceptor (unknown origin) expressed in Escherichia coli BL21 (DE3)

Chain of Beta-2 adrenergic receptor (P07550 whole entry, the tested form may be a part): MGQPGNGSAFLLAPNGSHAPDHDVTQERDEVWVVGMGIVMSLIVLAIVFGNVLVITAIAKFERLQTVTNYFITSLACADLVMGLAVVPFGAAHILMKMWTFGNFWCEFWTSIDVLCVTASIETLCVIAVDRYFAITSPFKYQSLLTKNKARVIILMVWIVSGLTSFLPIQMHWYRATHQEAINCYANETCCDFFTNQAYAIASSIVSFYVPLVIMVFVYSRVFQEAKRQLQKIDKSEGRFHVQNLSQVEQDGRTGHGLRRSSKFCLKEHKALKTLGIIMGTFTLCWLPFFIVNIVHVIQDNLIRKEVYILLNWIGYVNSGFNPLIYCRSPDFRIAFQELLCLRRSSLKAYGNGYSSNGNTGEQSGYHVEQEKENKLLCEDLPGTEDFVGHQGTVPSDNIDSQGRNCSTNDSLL

CNC(C)Cc1ccccc1OC (stereo unspecified) [Methoxyphenamine]
Kd: 2.1 nM
